Test results published in patent US12409139B2, “Stable parenteral formulations of duloxetine” (LEIUTIS PHARMACEUTICALS LLP, priority 2020, dated 2025).
Like-named read-outs stand apart in the source and are kept apart here.

What was measured:
[1] = commercial delayed release (enteric coated) capsules, oral; cited from earlier work
[2] = for Assay (%) / Total Impurities / pH: RT-25° C.
Experimental: The solution state stability of duloxetine was studied in various buffers for 24 hours.
The samples were stored for 24 hours and analyzed for pH, assay and total impurities by standard analytical procedures.

[3] = Acetate Buffer (pH-5.5), Initial
[4] = Acetate Buffer (pH-6.4), Initial
[5] = Aspartic acid + Boric Acid Buffer (pH-5.5), 24 h
[6] = Aspartic acid + Boric Acid Buffer (pH-5.5), Initial
[7] = Aspartic acid + Boric Acid Buffer (pH-6.4), 24 h
[8] = Aspartic acid + Boric Acid Buffer (pH-6.4), Initial
[9] = Glycine Buffer (pH-5.5), Initial
[10] = Glycine Buffer (pH-6.4), Initial
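For Solubility observation in this document: solubility and solution-stability study of the drug dissolved in assorted buffers across a range of pH values.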

CNCCC(Oc1cccc2ccccc12)c1cccs1 (single isomer, unassigned; (+)) [duloxetine, (+)-N-methyl-3-(1-naphthalenyloxy)-3-(2-thienyl) propan-1-amine]
Solubility observation (0.1N Sodium hydroxide buffer, pH 4.5, 10 mg/ml): Insoluble
Solubility observation (0.1N Sodium hydroxide buffer, pH 5.5, 10 mg/ml): Insoluble
Solubility observation (0.1N Sodium hydroxide buffer, pH 6.4, 10 mg/ml): Insoluble
Solubility observation (Acetate buffer, pH 4.5, 10 mg/ml): Clear solution
Solubility observation (Acetate buffer, pH 5.5, 10 mg/ml): Clear solution
Solubility observation (Acetate buffer, pH 6.4, 10 mg/ml): Clear solution
Solubility observation (Acetate buffer, pH 7.5, 10 mg/ml): Clear solution
Solubility observation (Alanine buffer, pH 4.5, 10 mg/ml): Clear solution
Solubility observation (Alanine buffer, pH 5.5, 10 mg/ml): Clear solution
Solubility observation (Alanine buffer, pH 6.4, 10 mg/ml): Insoluble
Solubility observation (Aspartic acid and Boric acid buffer, pH 4.5, 10 mg/ml): Clear solution
Solubility observation (Aspartic acid and Boric acid buffer, pH 5.5, 10 mg/ml): Clear solution
Solubility observation (Aspartic acid and Boric acid buffer, pH 6.4, 10 mg/ml): Insoluble
Solubility observation (Citrate buffer, pH 4.5, 10 mg/ml): Insoluble
Solubility observation (Citrate buffer, pH 5.5, 10 mg/ml): Insoluble
Solubility observation (Citrate buffer, pH 6.4, 10 mg/ml): Insoluble
Solubility observation (Glycine buffer, pH 4.5, 10 mg/ml): Clear solution
Solubility observation (Glycine buffer, pH 5.5, 10 mg/ml): Clear solution
Solubility observation (Glycine buffer, pH 6.4, 10 mg/ml): Clear solution
Solubility observation (Glycine buffer, pH 7.5, 10 mg/ml): Clear solution
Solubility observation (Histidine buffer, pH 4.5, 10 mg/ml): Insoluble
Solubility observation (Histidine buffer, pH 5.5, 10 mg/ml): Insoluble
Solubility observation (Histidine buffer, pH 6.4, 10 mg/ml): Insoluble
Solubility observation (Isoleucine buffer, pH 4.5, 10 mg/ml): Clear solution
Solubility observation (Isoleucine buffer, pH 5.5, 10 mg/ml): Clear solution
Solubility observation (Isoleucine buffer, pH 6.4, 10 mg/ml): Clear solution
Solubility observation (Isoleucine buffer, pH 7.5, 10 mg/ml): Clear solution
Solubility observation (Lactic acid buffer, pH 4.5, 10 mg/ml): Clear solution
Solubility observation (Lactic acid buffer, pH 5.5, 10 mg/ml): Clear solution
Solubility observation (Lactic acid buffer, pH 6.4, 10 mg/ml): Clear solution
Solubility observation (Lactic acid buffer, pH 7.5, 10 mg/ml): Clear solution
Solubility observation (Leucine buffer, pH 4.5, 10 mg/ml): Clear solution
Solubility observation (Leucine buffer, pH 5.5, 10 mg/ml): Clear solution
Solubility observation (Leucine buffer, pH 6.4, 10 mg/ml): Clear solution
Solubility observation (Leucine buffer, pH 7.5, 10 mg/ml): Clear solution
Solubility observation (Lysine buffer, pH 4.5, 10 mg/ml): Insoluble
Solubility observation (Lysine buffer, pH 5.5, 10 mg/ml): Insoluble
Solubility observation (Lysine buffer, pH 6.4, 10 mg/ml): Insoluble
Solubility observation (Meglumine buffer, pH 4.5, 10 mg/ml): Insoluble
Solubility observation (Meglumine buffer, pH 5.5, 10 mg/ml): Insoluble
Solubility observation (Meglumine buffer, pH 6.4, 10 mg/ml): Insoluble
Solubility observation (Methionine buffer, pH 4.5, 10 mg/ml): Clear solution
Solubility observation (Methionine buffer, pH 5.5, 10 mg/ml): Clear solution
Solubility observation (Methionine buffer, pH 6.4, 10 mg/ml): Clear solution
Solubility observation (Methionine buffer, pH 7.5, 10 mg/ml): Clear solution
Solubility observation (Phenyl alanine buffer, pH 4.5, 10 mg/ml): Clear solution
Solubility observation (Phenyl alanine buffer, pH 5.5, 10 mg/ml): Clear solution
Solubility observation (Phenyl alanine buffer, pH 6.4, 10 mg/ml): Insoluble
Solubility observation (Phosphate buffer, pH 4.5, 10 mg/ml): Clear solution
Solubility observation (Phosphate buffer, pH 5.5, 10 mg/ml): Insoluble
Solubility observation (Phosphate buffer, pH 6.4, 10 mg/ml): Insoluble
Solubility observation (Proline buffer, pH 4.5, 10 mg/ml): Clear solution
Solubility observation (Proline buffer, pH 5.5, 10 mg/ml): Clear solution
Solubility observation (Proline buffer, pH 6.4, 10 mg/ml): Clear solution
Solubility observation (Proline buffer, pH 7.5, 10 mg/ml): Clear solution
Solubility observation (Serine buffer, pH 4.5, 10 mg/ml): Clear solution
Solubility observation (Serine buffer, pH 5.5, 10 mg/ml): Clear solution
Solubility observation (Serine buffer, pH 6.4, 10 mg/ml): Clear solution
Solubility observation (Serine buffer, pH 7.5, 10 mg/ml): Insoluble
Solubility observation (Sodium phosphate buffer, pH 4.5, 10 mg/ml): Clear solution
Solubility observation (Sodium phosphate buffer, pH 5.5, 10 mg/ml): Insoluble
Solubility observation (Sodium phosphate buffer, pH 6.4, 10 mg/ml): Insoluble
Solubility observation (Succinate buffer, pH 4.5, 10 mg/ml): Clear solution
Solubility observation (Succinate buffer, pH 5.5, 10 mg/ml): Insoluble
Solubility observation (Succinate buffer, pH 6.4, 10 mg/ml): Insoluble
Solubility observation (Tartaric acid buffer, pH 4.5, 10 mg/ml): Insoluble
Solubility observation (Tartaric acid buffer, pH 5.5, 10 mg/ml): Insoluble
Solubility observation (Tartaric acid buffer, pH 6.4, 10 mg/ml): Insoluble
Solubility observation (Tris buffer, pH 4.5, 10 mg/ml): Insoluble
Solubility observation (Tris buffer, pH 5.5, 10 mg/ml): Insoluble
Solubility observation (Tris buffer, pH 6.4, 10 mg/ml): Insoluble
Solubility observation (Tryptophan buffer, pH 4.5, 10 mg/ml): Clear solution
Solubility observation (Tryptophan buffer, pH 5.5, 10 mg/ml): Clear solution
Solubility observation (Tryptophan buffer, pH 6.4, 10 mg/ml): Clear solution
Solubility observation (Tryptophan buffer, pH 7.5, 10 mg/ml): Clear solution
Solubility observation (Valine buffer, pH 4.5, 10 mg/ml): Clear solution
Solubility observation (Valine buffer, pH 5.5, 10 mg/ml): Clear solution
Solubility observation (Valine buffer, pH 6.4, 10 mg/ml): Clear solution
Solubility observation (Valine buffer, pH 7.5, 10 mg/ml): Clear solution
time for the absorption to begin [1]: 2 h
Assay (%) ([2]; Acetate Buffer (pH-5.5), 24 h): 92.4%
Total Impurities ([2]; Acetate Buffer (pH-5.5), 24 h): 0.2
pH ([2]; Acetate Buffer (pH-5.5), 24 h): 5.4
Assay (%) [2, 3]: 93.9%
Total Impurities [2, 3]: 0.14
pH [2, 3]: 5.32
Assay (%) ([2]; Acetate Buffer (pH-6.4), 24 h): 90.3%
Total Impurities ([2]; Acetate Buffer (pH-6.4), 24 h): 0.1
pH ([2]; Acetate Buffer (pH-6.4), 24 h): 6.1
Assay (%) [2, 4]: 94.3%
Total Impurities [2, 4]: 0.1
pH [2, 4]: 6.38
Assay (%) [2, 5]: 93.3%
Total Impurities [2, 5]: 0.5
pH [2, 5]: 5.7
Assay (%) [2, 6]: 93.0%
Total Impurities [2, 6]: 0.3
pH [2, 6]: 5.8
Assay (%) [2, 7]: 97.8%
Total Impurities [2, 7]: 0.5
pH [2, 7]: 6.5
Assay (%) [2, 8]: 97.9%
Total Impurities [2, 8]: 0.3
pH [2, 8]: 6.6
Assay (%) ([2]; Glycine Buffer (pH-5.5), 24 h): 104.8%
Total Impurities ([2]; Glycine Buffer (pH-5.5), 24 h): 0.2
pH ([2]; Glycine Buffer (pH-5.5), 24 h): 5.5
Assay (%) [2, 9]: 105%
Total Impurities [2, 9]: 0.12
pH [2, 9]: 5.59
Assay (%) ([2]; Glycine Buffer (pH-6.4), 24 h): 96.6%
Total Impurities ([2]; Glycine Buffer (pH-6.4), 24 h): 0.18
pH ([2]; Glycine Buffer (pH-6.4), 24 h): 6.35
Assay (%) [2, 10]: 97.7%
Total Impurities [2, 10]: 0.10
pH [2, 10]: 6.23
Solution state stability in terms of assay and total impurities (in words) ([2]; acetate buffer at pH-5.5 and pH-6.4 and glycine buffer at pH-5.5 and pH-6.4, 24 hours): best results
Solution state stability (in words) ([2]; all the buffers tested, stored for 24 hours): satisfactory stability
